Data set [1] addresses Cyclin-dependent kinase 4 (Homo sapiens, UniProt P11802). The experiment in a line: Inhibition of CDK4 (unknown origin) using U-light as substrate preincubated for 1 hr followed by EDTA addition measured after 1 hr by LANCE Ultra kinase assay. Background: In TR-FRET formats the signal depends on donor and acceptor labels being close together.
In data set [2] the target is Cyclin-dependent kinase 1 (Homo sapiens, UniProt P06493). The data set is described as follows: Inhibition of CDK1 (unknown origin) using U-light as substrate preincubated for 1 hr followed by EDTA addition measured after 1 hr by LANCE Ultra kinase assay.
Data set [3] concerns COLO 205. The experiment in a line: Antiproliferative activity against human COLO205 cells after 96 hrs by CCK-8 assay. The format is functional, cell-based. As to conditions: COLO 205, 96 h.
Data set [4] deals with Cyclin-dependent kinase 6 (Homo sapiens, UniProt Q00534). The experiment in a line: Inhibition of CDK6 (unknown origin) using U-light as substrate preincubated for 1 hr followed by EDTA addition measured after 1 hr by LANCE Ultra kinase assay.
Data set [5] relates to COLO 205. The experiment in a line: Antitumor activity against human COLO205 cells xenografted in nude BALB/c mouse assessed as tumor volume at 100 mg/kg, po administered once daily for 3 weeks measured twice per week relative to control. The format is functional. A general note: Xenograft models place foreign cells or tissue in a host animal.
Data set [6] in a line: AUC in ICR mouse at 5 mg/kg, po. The data set is classed as ADME, organism-based. The conditions noted are these: in vivo.
The nature of data set [7]: Half life in ICR mouse at 1 mg/kg, iv. The data set is classed as ADME, organism-based. As to conditions: in vivo.
Data set [8] is described as follows: Clearance in ICR mouse at 1 mg/kg, iv. The data set is classed as ADME, organism-based. The conditions noted are these: in vivo.
Data set [9] can be described thus: Cmax in ICR mouse at 1 mg/kg, iv. The data set is classed as ADME, organism-based. Also noted: dose 1 mg/kg, route intravenous. The conditions noted are these: in vivo.
The test system of data set [10] is COLO 205. The experiment in a line: Antitumor activity against human COLO205 cells xenografted in nude BALB/c mouse assessed as tumor volume administered once daily for 3 weeks measured twice per week relative to control. The format is functional.
Data set [11] can be described thus: Volume of distribution at steady state in ICR mouse at 1 mg/kg, iv. As to conditions: in vivo, read-out: Vdss. The format is ADME, organism-based.
The nature of data set [12]: AUC in ICR mouse at 1 mg/kg, iv. The data set is classed as ADME, organism-based. As to conditions: in vivo.
Data set [13] in a line: Oral bioavailability in ICR mouse at 5 mg/kg. As to conditions: in vivo. The format is ADME, organism-based.
The test system of data set [14] is COLO 205. The data set is described as follows: Antitumor activity against human COLO205 cells xenografted in nude BALB/c mouse assessed as tumor volume at 25 mg/kg, po administered once daily for 3 weeks measured twice per week relative to control relative to control. The format is functional.
The test system of the next data set is Mus musculus. The data set is described as follows: Toxicity in nude BALB/c mouse xenografted with human COLO205 cells assessed as change in body weight at 25 to 100 mg/kg, po administered once daily for 3 weeks. As to conditions: in vivo, 504 h. The data set is classed as organism-based.

Sequence of Cyclin-dependent kinase 1 (P06493 whole entry): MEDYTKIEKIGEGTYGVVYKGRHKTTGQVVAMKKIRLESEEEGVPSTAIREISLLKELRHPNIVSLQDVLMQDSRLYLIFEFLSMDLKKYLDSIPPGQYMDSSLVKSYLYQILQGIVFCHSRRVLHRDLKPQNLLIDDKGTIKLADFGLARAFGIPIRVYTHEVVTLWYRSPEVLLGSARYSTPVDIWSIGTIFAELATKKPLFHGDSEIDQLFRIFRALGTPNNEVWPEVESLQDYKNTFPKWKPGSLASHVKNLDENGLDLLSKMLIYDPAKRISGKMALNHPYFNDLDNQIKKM
Sequence of Cyclin-dependent kinase 4 (P11802 whole entry): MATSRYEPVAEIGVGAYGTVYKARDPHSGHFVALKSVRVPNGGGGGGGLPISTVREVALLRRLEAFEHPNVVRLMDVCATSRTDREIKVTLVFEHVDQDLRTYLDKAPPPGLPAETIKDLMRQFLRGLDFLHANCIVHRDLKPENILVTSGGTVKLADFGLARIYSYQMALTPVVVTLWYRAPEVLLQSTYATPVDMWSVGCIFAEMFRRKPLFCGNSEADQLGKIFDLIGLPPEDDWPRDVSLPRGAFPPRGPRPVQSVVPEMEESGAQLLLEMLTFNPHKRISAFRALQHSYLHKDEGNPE
Sequence of Cyclin-dependent kinase 6 (Q00534 whole entry): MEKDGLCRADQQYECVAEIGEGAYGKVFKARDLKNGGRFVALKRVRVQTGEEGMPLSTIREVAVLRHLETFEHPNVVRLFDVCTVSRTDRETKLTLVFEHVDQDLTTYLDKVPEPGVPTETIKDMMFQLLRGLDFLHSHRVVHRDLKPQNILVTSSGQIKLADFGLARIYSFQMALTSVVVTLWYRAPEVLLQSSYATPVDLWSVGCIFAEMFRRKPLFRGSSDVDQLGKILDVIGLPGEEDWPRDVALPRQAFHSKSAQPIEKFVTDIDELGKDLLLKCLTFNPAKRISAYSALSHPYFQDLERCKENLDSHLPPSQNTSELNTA

The term IC50 denotes the concentration that gives 50% inhibition. A low value points to greater potency in that assay. On to `CCN1CCN(Cc2ncc(Nc3cc(-c4cc(F)c5nc(C)n(C(C)C)c5c4)ncn3)cn2)CC1`, for which, in data set [1], the 50% inhibitory concentration (IC50) was 5160 nM.
On to `CCN1CCC(Oc2cnc(Nc3cc(-c4cc(F)c5nc(C)n(C(C)C)c5c4)ncn3)cn2)CC1`, for which the IC50 in data set [2] turned out to be 231 nM; in the data set on COLO 205 [3] it was 460 nM; in data set [4], 4 nM; in data set [1] it was 8.8 nM.
With `CCN1CCC(Cc2cnc(Nc3cc(-c4cc(F)c5nc(C)n(C(C)C)c5c4)ncn3)cn2)CC1`, the 50% inhibitory concentration (IC50) came out at 134 nM in data set [2], 320 nM with COLO 205 [3], 2.9 nM in [4] and 2.4 nM in [1].
As to `CCN1CCN(Cc2ccc(Nc3cc(-c4cc(F)c5nc(C)n(C(C)C)c5c4)ncn3)nc2)CC1`, the IC50 in [2] was 412 nM; in the data set with COLO 205 [3], 260 nM; in [4], 4.4 nM; in data set [1] it was 3.1 nM.
For `Cc1nc2c(F)cc(-c3cc(Nc4cnc(CN5CCN(CC6CC6)CC5)cn4)ncn3)cc2n1C(C)C` the same measures were 103 nM, 110 nM, 2.2 nM and 2.9 nM.
Regarding `CCN1CCN(Cc2ccc(Nc3cc(-c4cc(F)c5nc(C)n(C(C)C)c5c4)c(F)cn3)nn2)CC1`, the values for the IC50 (in data set [2]; in the data set with COLO 205 [3]; in data set [1]) were 1670 nM, 630 nM and 12.1 nM, respectively.
With `CCN1CCN(Cc2cnc(Nc3cc(-c4cc(F)c5nc(C)n(C(C)C)c5c4)ccn3)cn2)CC1`, the IC50 in data set [2] amounted to 35.8 nM; with COLO 205 [3], 50 nM; in [4] it was 1.6 nM; in data set [1], 2.1 nM.
The T/C is the result in the treated group divided by that in the control group, in per cent. In turn, `CCN1CCN(Cc2ccc(Nc3ncc(F)c(-c4cc(F)c5nc(C)n(C(C)C)c5c4)n3)nc2)CC1` [ABEMACICLIB] registered a half-maximal inhibitory concentration (IC50) with COLO 205 [3] of 460 nM. The T/C in the data set on COLO 205 [5] amounted to 3.95%.
In the case of `CCN1CCN(Cc2ccc(Nc3cc(-c4cc(F)c5nc(C)n(C(C)C)c5c4)ccn3)nc2)CC1`, the IC50 in data set [2] came to 301 nM; with COLO 205 [3], 140 nM; in data set [4], 2.9 nM; in [1] it was 2.9 nM.
With `Cc1nc2c(F)cc(-c3cc(Nc4cnc(CN5CCN(C6CCCC6)CC5)cn4)ncn3)cc2n1C(C)C`, the IC50 worked out at 101 nM in data set [2], 160 nM with COLO 205 [3], 1.8 nM in data set [4] and 2.2 nM in [1].
Consider `CCN1CCN(Cc2cnc(Nc3ncnc(-c4cc(F)c5nc(C)n(C(C)C)c5c4)c3F)cn2)CC1`, for which the IC50 in the data set on COLO 205 [3] is 5600 nM; in data set [1], 283 nM.
`COCCN1CCN(Cc2cnc(Nc3cc(-c4cc(F)c5nc(C)n(C(C)C)c5c4)ncn3)cn2)CC1`: the concentration for half-maximal inhibition (IC50) stood at 140 nM in data set [2], 140 nM in the data set on COLO 205 [3], 1.6 nM in data set [4] and 3.7 nM in data set [1].
Usually AUC stands for the area under the concentration-time curve, a measure of exposure. Low readings indicate less exposure, high ones more exposure. By half-life is commonly meant how long it takes for the measured level to halve. High values mean slow decline, low ones rapid decline. As usually defined, the clearance is a measure of how efficiently the substance is removed, as volume per time. As a reminder, the Cmax is the highest concentration seen after dosing. What is called bioavailability is dose-corrected exposure relative to a reference, in per cent. Take `CCN1CCN(Cc2cnc(Nc3cc(-c4cc(F)c5nc(C)n(C(C)C)c5c4)ncn3)cn2)CC1`: the AUC came to 2550 ng·h/mL in data set [6] and 571 ng·h/mL in data set [12]. In data set [7], this molecule showed a half-life of 1.6 h. For the same molecule, in data set [8], the clearance lay in the range of 20.8 to 28.8 mL/min/kg. Also, the IC50 in [2] worked out at 136 nM; in the data set with COLO 205 [3], 210 nM; in [4], 2.7 nM; in data set [1], 1.5 nM. Moreover, the T/C with COLO 205 [5] turned out to be 12.37%; in the data set on COLO 205 [14], 54.21%. In [9], this molecule displayed a Cmax of 998 ng/mL. The values for the Activity entry in the data set with COLO 205 [10] and in the data set with Mus musculus were “Dose-dependent effect” and “Non-Toxic”, respectively. Further, the Vd in data set [11] is 0.57 L/kg. In data set [13], the bioavailability was 89.3%.
For the molecule `CCN1CCN(Cc2ccc(Nc3cc(-c4cc(F)c5nc(C)n(C(C)C)c5c4)ncn3)nn2)CC1`, the IC50 in data set [2] turned out to be 2430 nM; in the data set with COLO 205 [3], 520 nM; in data set [1], 13.8 nM.
In the case of `Cc1nc2c(F)cc(-c3cc(Nc4cnc(CN5CCN(C(C)C)CC5)cn4)ncn3)cc2n1C(C)C`, the half-maximal inhibitory concentration (IC50) in data set [2] is 97.2 nM; in the data set with COLO 205 [3] it was 140 nM; in data set [4], 2.3 nM; in data set [1] it was 1.6 nM.
For `Cc1nc2c(F)cc(-c3cc(Nc4cnc(CN5CCN(CC(F)(F)F)CC5)cn4)ncn3)cc2n1C(C)C` the same measures were 150 nM, 530 nM, 5.8 nM and 5.6 nM.
Regarding `CCN1CCC(C(C)c2cnc(Nc3cc(-c4cc(F)c5nc(C)n(C(C)C)c5c4)ncn3)cn2)CC1` (centres undefined), the values for the IC50 (in data set [2]; in the data set with COLO 205 [3]; in data set [1]) were 1410 nM, 1510 nM and 18.3 nM, respectively.
On to `CCN1CCN(Cc2cnc(Nc3cc(-c4cc(F)c5nc(C)n(C(C)C)c5c4)c(F)cn3)cn2)CC1`, for which the clearance in data set [8] is 37.6 mL/min/kg. The IC50 in data set [2] came to 44 nM; with COLO 205 [3], 40 nM; in data set [4], 1.6 nM; in [1], 1.6 nM. In data set [9], this molecule showed a maximum concentration (Cmax) of 514 ng/mL. For the same molecule, the Vd in data set [11] stood at 6.44 L/kg. Also, in [12], the AUC stood at 425 ng·h/mL.
`CCN1CCN(Cc2cnc(Nc3cc(-c4cc(F)c5nc(C)n(C(C)C)c5c4)ncn3)nc2)CC1`: the IC50 was determined as 20200 nM in data set [2], 3740 nM in the data set with COLO 205 [3] and 35.9 nM in [1].
With `CCN1CCN(Cc2ccc(Nc3cc(-c4cc(F)c5nc(C)n(C(C)C)c5c4)ccn3)nn2)CC1`, the 50% inhibitory concentration (IC50) in data set [2] is 801 nM; with COLO 205 [3], 340 nM; in [4], 23.6 nM; in data set [1], 5.2 nM.
